The text below walks through data of PMC7268545, “Development of a QPatch-Automated Electrophysiology Assay for Identifying TMEM16A Small-Molecule Inhibitors” (Assay and Drug Development Technologies, 2020).

For this test, the target named is T1, human ANO1 channel (isoform acd) (Homo sapiens, UniProt Q5XXA6).
T1 construct: host or cells: HEK293T
T1 sequence (Q5XXA6 1-986): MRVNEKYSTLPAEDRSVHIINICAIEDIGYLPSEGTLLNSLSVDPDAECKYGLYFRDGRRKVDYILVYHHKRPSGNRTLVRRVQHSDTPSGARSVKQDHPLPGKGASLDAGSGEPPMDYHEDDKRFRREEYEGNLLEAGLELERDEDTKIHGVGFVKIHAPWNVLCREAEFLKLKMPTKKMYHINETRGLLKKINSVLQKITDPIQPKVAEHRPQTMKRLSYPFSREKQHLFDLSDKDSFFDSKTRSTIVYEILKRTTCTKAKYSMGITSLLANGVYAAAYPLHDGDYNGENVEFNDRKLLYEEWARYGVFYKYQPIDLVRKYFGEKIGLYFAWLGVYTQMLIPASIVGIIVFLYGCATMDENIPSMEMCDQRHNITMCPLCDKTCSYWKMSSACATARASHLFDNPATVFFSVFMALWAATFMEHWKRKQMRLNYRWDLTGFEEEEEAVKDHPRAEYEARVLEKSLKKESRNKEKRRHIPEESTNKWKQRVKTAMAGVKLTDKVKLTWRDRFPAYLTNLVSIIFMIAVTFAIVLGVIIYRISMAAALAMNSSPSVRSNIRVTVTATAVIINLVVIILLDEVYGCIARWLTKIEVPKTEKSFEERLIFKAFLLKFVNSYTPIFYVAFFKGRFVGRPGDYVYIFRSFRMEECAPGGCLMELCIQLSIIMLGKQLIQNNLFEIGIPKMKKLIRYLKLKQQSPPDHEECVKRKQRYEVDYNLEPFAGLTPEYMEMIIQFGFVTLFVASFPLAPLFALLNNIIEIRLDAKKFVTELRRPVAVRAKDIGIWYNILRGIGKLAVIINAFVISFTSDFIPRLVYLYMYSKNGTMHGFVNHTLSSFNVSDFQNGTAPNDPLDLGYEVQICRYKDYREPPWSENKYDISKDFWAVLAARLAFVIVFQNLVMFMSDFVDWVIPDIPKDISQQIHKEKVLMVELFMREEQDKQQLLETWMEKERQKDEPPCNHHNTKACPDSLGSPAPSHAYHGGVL
Briefly: QPatch-48 automated whole-cell electrophysiology, cumulative five-concentration single-addition protocol. Type of test: cell-based. How it is done:
HEK293T cells stably expressing the human ANO1 channel (isoform acd) were obtained from Scottish Biomedical. Cells were cultured in Sigma Minimum Essential Media containing 10% heat-inactivated fetal bovine serum, 1% penicillin/streptomycin, 1% glutamine, and […] geneticin. Cells were maintained in a 37°C, 5% CO2 environment. Cells were passaged every 3 days after they had reached ∼70% confluency and were not allowed to reach a density greater than 1–2 × 10^5 cells/cm^2 during routine culture. When subculturing, cells were rinsed once with room temperature 1 × phosphate-buffered saline (PBS; Ca^2+/Mg^2+ free), lifted with TrypLE Express, resuspended in prewarmed growth media, and counted using a hemocytometer. Cells were then plated in T150 flasks at a density of 2.9 × 10^4 cells/cm^2 to be either used in the assay or subcultured 72 h later.
On the day of the experiment, cells plated at a density of 2.9 × 10^4 cells/cm^2 72 h prior should be ∼70%–80% confluent. After cells were rinsed with prewarmed 1 × PBS (Ca^2+/Mg^2+ free), 3 mL of room temperature Detachin solution (Genlantis) was added to the flask and tilted gently two to three times to cover all the cells. Approximately 2 mL of Detachin was aspirated from the flask, leaving 1 mL on the cells, and then placed in the 37°C incubator for 5 min. Once cells had rounded up, the cells were dislodged by tapping the flask gently. The cells were then resuspended in 5 mL of warm serum-free media (EX-CELL ACF CHO Medium; Sigma; supplemented with 4 mM L-glutamine and 10 mM HEPES). A glass Pasteur pipette with a rubber bulb was then used to gently dissociate the cells from one another. Detachin will often leave cells as doublets or clumps, conditions that will disrupt seal formation on the QPatch. The cells were triturated ∼30 times and then, still using the Pasteur pipette, transferred into the QPatch Cell Hotel. This ensures that cells detach from one another leaving a suspension of single cells. A QStirrer was added to the Cell Hotel and the cell suspension was immediately placed on the QPatch device. Cells were utilized within 15 min.
Compounds were reconstituted in dimethyl sulfoxide (DMSO; Sigma) as 10 mM stock solutions. An automated dilution machine set up the microtiter plate (MTP ) by making 1:5 dilutions from a starting concentration of 30 μM. The concentration of DMSO was equal for all concentrations tested. Each MTP contained one row of a negative control (DMSO) and a positive control (benzbromarone). A total of eight compounds were run at a time. All compounds tested were produced in-house.
Whole-cell patch-clamp experiments were performed on a QPatch-48-automated electrophysiology platform (Sophion Biosciences) using the 48-channel, single-hole QPlate (resistance 2.0 ± 0.4 MΩ). The external buffer (in mM) was 140 NaCl, 4 KCl, 2 CaCl2, 1 MgCl2, 10 HEPES, 10 glucose, pH 7.4 (osmolarity = 300), and the internal buffer (in mM) was 110 CsCl, 20 TEA-Cl, 5.374 CaCl2, 1.75 MgCl2, 10 EGTA, 10 HEPES, 4 Na2ATP, pH 7.2 (osmolarity = 310). Cell positioning was set to a 5-s wait time with a positioning pressure of −60 mbar and a positioning time-out of 60 s. Resistance was set to increase 750% to ensure the success of positioning. To obtain a seal, pressure was increased to −70 mbar with an allowed pressure of −130 to −20 mbar and a holding pressure of −20 mbar. The holding potential was set to −70 mV and a 240-s time-out was set. The minimum seal resistance was set to 0.02 GΩ. To go whole cell, five 1-s suction pulses were applied starting at −180 mbar and increasing with −40 mbar increments with a pulse period of 10 s. Suction ramp and voltage zap protocols were kept standard, according to the default HEK cell settings. […] The suction ramp order of use was set to 2 with a ramp amplitude of −450 mbar and a ramp slope of 100 ms/mbar.
Once established in whole-cell configuration, cells are clamped to a holding potential (Vhold) of 0 mV.
(Patch clamp records ionic current or voltage across a cell membrane.)

[1] abbreviates: half plate (24-well format), cumulative single-addition, n = 5, read-out: average IC50 (mean ± SD).
Where [2] appears, read: independent experiment 3, read-out: IC50s for independent experiments 3.
The mark [3] stands for this setting: independent experiment 4, read-out: IC50s for independent experiments 4.
[4] abbreviates: independent experiment 5, read-out: IC50s for independent experiments 5.

Read-outs that look alike come from different tables or passages of the source.

With `O=C(Nc1ccc([N+](=O)[O-])cc1Cl)c1cc(Cl)ccc1O` [Niclosamide], the IC50 is roughly 1000 nM (QPatch, 1-min incubations, read-out: concentration inhibiting 50% of channel current); 1600 ± 390 nM under setting [1]; 1620 nM (independent experiment 1, block at +100 mV, 250 nM internal free-calcium, read-out: IC50s for independent experiments 1); 1430 nM (independent experiment 2, read-out: IC50s for independent experiments 2); 1050 nM under setting [2]; 2090 nM under setting [3]. In addition, the IC50 under setting [4] worked out at 1810 nM.

In the case of `CCc1oc2ccccc2c1C(=O)c1cc(Br)c(O)c(Br)c1` [Benzbromarone], the IC50 reads like this: (IC50s for independent experiments 1, independent experiment 1, block at +100 mV, 250 nM internal free-calcium) 3450 nM; (IC50s for independent experiments 2, independent experiment 2) 1510 nM; (full 48-well plate format (with rundown), n = 1, read-out: IC50, full 48-well plate format) 730 nM; under setting [1], 2540 ± 940 nM; under setting [2], 1310 nM; under setting [3], 2300 nM. In addition, under setting [4], the IC50 was 3180 nM.
